Patent US7745161B2, “Amplification of enzymatic reactions for use with an enthalpy array” (Palo Alto Research Center Incorporated, priority 2003, dated 2010)

Target: T1, GPCR P2Y6 receptor complex (Homo sapiens, UniProt Q15077)
T1 construct: made in house; host or cells: baculovirus-inoculated insect cell (membrane fragments)
Assay: Nanocalorimetry measurement of agonist binding to a GPCR, amplified by G-protein hydrolysis of GTP
Assay type: biochemical
Conditions: after merging [UDP]=0.4 mM, [GTP]=1.15 mM
Description: We have measured reactions involving agonist binding to a GPCR (G-protein coupled receptor), at low GPCR concentration, by using the associated G-protein hydrolysis of GTP as the source of the amplified heat of reaction. Most of the heat in this example is from GTP hydrolysis by G-proteins activated by a GPCR with a bound agonist. GPCRs are transmembrane proteins that bind […] (e.g. agonist or inhibitor) on the extracellular side and, upon receptor binding, cause a G-protein (also a membrane protein) on the intracellular side to exchange GDP for GTP. After binding GTP, the G-protein dissociates from the GPCR, and the α subunit dissociates from the β-γ complex. The α subunit and β-γ complex can then migrate independently along the membrane and interact with targets.
Explaining this measurement in terms of FIG. 2A, the GPCR is the primary enzyme 44. We refer to the GPCR as an enzyme because it catalyzes the exchange of GDP for GTP on the G-protein and the subsequent dissociation of the α subunit of the G-protein from the β-γ complex. The G-protein before the GDP-GTP exchange and dissociation can be considered the substrate 40. The GPCR is also […], and as such it is activated in this example by binding of agonist, which is therefore an activator 42. The products 46 of the primary enzymatic reaction are the α subunit and β-γ complex of the dissociated G-protein. […]

T1 sequence (Q15077 whole entry, the tested form may be a part, one chain of several): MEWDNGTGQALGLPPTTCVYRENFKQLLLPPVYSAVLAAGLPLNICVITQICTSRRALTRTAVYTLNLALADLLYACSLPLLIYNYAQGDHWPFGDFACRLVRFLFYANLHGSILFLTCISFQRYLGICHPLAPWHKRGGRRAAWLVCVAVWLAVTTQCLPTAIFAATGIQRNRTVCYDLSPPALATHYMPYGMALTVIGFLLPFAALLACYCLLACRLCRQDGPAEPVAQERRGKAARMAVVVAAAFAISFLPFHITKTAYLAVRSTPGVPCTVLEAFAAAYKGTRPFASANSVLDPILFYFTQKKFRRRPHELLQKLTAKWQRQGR

- nanocalorimeter signal magnitude (differential temperature) (fragmented membranes with over-expressed P2Y6, 1 mg/ml total protein, 250 nL drops): 1.2 m° C.
- duration of nanocalorimeter signal after the drops are merged (fragmented membranes with over-expressed P2Y6): 1 to 2 s
Structure (SMILES): O=c1ccn([C@@H]2O[C@H](COP(=O)(O)OP(=O)(O)O)[C@@H](O)[C@H]2O)c(=O)[nH]1 [UDP]
